Measured values from paper PMC6359749, “Lignans from the Twigs of Litsea cubeba and Their Bioactivities” (Molecules, 2019).

Columns and labels:
[1] = system: human ovarian cancer (A2780) cell line; test: Cytotoxicity assay (MTT), A2780; assay type: cell-based; conditions: 24 h treatment
Experimental: (§1) The cytotoxic activity was determined against human colon cancer (HCT-116), human non-small-cell lung carcinoma (NCI-H1650), and human ovarian cancer (A2780) cell lines which were bought from the Cell Bank of Shanghai Institute of Cell Biology (Chinese Academy of Sciences) and originally obtained from the American Type Culture Collection (ATCC, Rockville, MD, USA). Cells were grown in RPMI 1640 (GIBCO, New York, NY, USA) supplemented with 10% fetal calf serum (Life Technologies, Carlsbad, CA, USA), penicillin G (100 U/mL), and streptomycin (100 μg/mL) at 37 °C in a 5% CO2 and seeded in 96-well plates (CLS3635, Corning®, Sigma, Santa Clara, CA, USA) at a cell density of 3000 per well over night, and then were treated with various diluted concentrations (each concentration was arranged triple) of compounds 1–19, which were prepared with DMSO (Sigma) to 100 μM stock solution and stored in −20 °C in advance. After 24 h of treatment, 10 μL of MTT (5 mg/mL in PBS) was then added directly to all wells and the plates were placed in the dark at 37 °C for 3 h incubation. Cell viability was measured by observing absorbance at 570 nm on a SpectraMax^190 microplate reader (Molecular Devices, Silicon Valley, CA, USA). IC50 values were calculated using Microsoft Excel software (version 2010, Redmond, WA, USA). Taxol was used as a positive control.

[2] = system: human colon cancer (HCT-116) cell line; test: Cytotoxicity assay (MTT), HCT-116; assay type: cell-based; conditions: 24 h treatment
Experimental: as §1

[3] = system: human non-small-cell lung carcinoma (NCI-H1650) cell line; test: Cytotoxicity assay (MTT), NCI-H1650; assay type: cell-based; conditions: for IC50: Homo sapiens, NCI-H1650, MTT, 24 h treatment
Experimental: as §1

[4] = system: LPS-induced NO production in RAW264.7 macrophages; test: LPS-induced nitric oxide (NO) production in RAW264.7 macrophages (Griess); assay type: cell-based; conditions: Mus musculus, LPS 1 μg/mL, 18 h, read-out: IC50 against LPS-induced NO production
Experimental: The RAW 264.7 macrophages were cultured in The RPMI 1640 medium (Hyclone, Logan, UT, USA) containing 10% FBS. The compounds were dissolved in DMSO and further diluted in medium to produce different concentrations. The cell mixture and culture medium were dispensed into 96-well plates (2 × 10^5 cells/well) and maintained at 37 °C under 5% CO2. After preincubation for 24 h, serial dilutions of the test compounds were added into the cells, up to the maximum concentration 25 μM, then added with LPS to a concentration 1 μg/mL and continued to incubate for 18 h. The amount of NO was assessed by determined the nitrite concentration in the cultured RAW264.7 macrophage supernatants with Griess reagent. Aliqueots of supernatants (100 μL) were incubated, in sequence, with 50 μL 1% sulphanilamide and 50 μL 1% naphthylethylenediamine in 2.5% phosphoric acid solution. The sample absorbance was measured at 570 nm by a 2104 Envision Multilabel Plate Reader (PerkinElmer, Inc., Waltham, MA, USA). Dexamethasone was used as a positive control.

[5] = target: T1, human protein tyrosine phosphatase 1B (GST-hPTP1B) (Homo sapiens, UniProt P18031); test: PTP1B inhibition assay (p-NPP dephosphorylation); assay type: biochemical; conditions: 3 mM p-NPP, HEPES pH 7.0, 30 °C, 10 min; read-out: IC50 against PTP1B
T1 construct: GST; made in house
T1 sequence (P18031 1-435): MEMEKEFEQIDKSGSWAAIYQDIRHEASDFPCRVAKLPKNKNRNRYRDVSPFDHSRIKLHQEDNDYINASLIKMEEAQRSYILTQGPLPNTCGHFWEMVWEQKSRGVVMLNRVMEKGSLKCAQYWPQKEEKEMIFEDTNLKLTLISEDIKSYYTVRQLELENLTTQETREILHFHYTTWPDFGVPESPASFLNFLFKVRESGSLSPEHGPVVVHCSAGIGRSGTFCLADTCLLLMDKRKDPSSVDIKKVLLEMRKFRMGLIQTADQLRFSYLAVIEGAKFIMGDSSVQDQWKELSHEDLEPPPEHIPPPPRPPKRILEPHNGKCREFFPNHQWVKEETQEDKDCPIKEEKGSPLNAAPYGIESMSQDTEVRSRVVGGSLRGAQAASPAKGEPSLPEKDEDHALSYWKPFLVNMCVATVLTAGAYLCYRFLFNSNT
Experimental: The dephosphorylation of para-nitrophenyl phosphate (p-NPP) was catalyzed to para-nitrophenol by PTP1B. Enzyme activity involving an end-point assay, which intensified the yellow color, was measured at a wavelength of 405 nm. All compounds were dissolved in 100% dimethyl sulfoxide (DMSO), and reactions, including controls, were performed at a final concentration of 10% DMSO. Selected compounds were first evaluated for their ability to inhibit the PTPase reaction at a 10 μM concentration at 30 °C for 10 min, in a reaction system with 3 mM p-NPP in HEPES assay buffer (pH 7.0). The reaction was initiated by addition of the enzyme and quenched by addition of 1 M NaOH. The amount of the produced p-nitrophenol was determined at 405 nm using a microplate spectrophotometer (uQuant, Bio-Tek, Winooski, VT, USA). IC50 values were evaluated using a sigmoidal dose-response (variable slope) curve-fitting program of GraphPad Prism 4.0 software (La Jolla, CA, USA). Oleanolic acid was used as a positive control.

Row | IC50 [4] [µM] | IC50 [5] [µM] | SMILES | IC50 [1] [µM] | IC50 [2] [µM] | IC50 [3] [µM] | folds more active than 8, 9, 13, and 14 ([3]; NCI-H1650 cell line, versus 8, 9, 13 and 14)
1 | – | – | COc1cc(C=C2C(=O)OCC2Cc2ccc(OC)c(OC)c2)ccc1O (stereo not shown) [Compound 19, (7E,8R′)-didehydroarctigenin] | 12.8 | 18.5 | > 20 | –
2 | 66.5 | – | COc1cc(/C=C/C(=O)OC[C@@H](Cc2ccc(O)c(OC)c2)[C@@H](COC(=O)/C=C/c2ccc(O)c(OC)c2)Cc2ccc(O)c(OC)c2)ccc1O [Compound 12, (+)-9,9′-O-di-(E)-feruloyl-secoisolariciresinol] | > 20 | > 20 | > 20 | –
3 | – | – | COc1cc(C=CC(=O)OCC2C(c3cc(OC)c(O)c(OC)c3)OCC2C(OC)c2cc(OC)c(O)c(OC)c2)ccc1O (stereo not shown) [Compound 9, 9′-O-(E)-Feruloyl-5,7,5′-trimethoxylariciresinol] | > 20 | > 20 | 13.2 | –
4 | – | – | COc1cc(C=CC(=O)OCC2C(Cc3cc(OC)c(O)c(OC)c3)COC2c2cc(OC)c(O)c(OC)c2)ccc1O (single isomer, unassigned; (+)) [Compound 13, (+)-9′-O-(E)-feruloyl-5,5′-dimethoxylariciresinol] | > 20 | > 20 | 9.68 | –
5 | – | – | COc1cc(CC2COC(c3cc(OC)c(O)c(OC)c3)C2CO)cc(OC)c1O (single isomer, unassigned; (+)) [Compound 15, (+)-5,5′-dimethoxylariciresinol] | > 20 | > 20 | > 20 | –
6 | – | – | COc1cc([C@@H]2c3c(cc(OC)c(O)c3OC)C=C(C(=O)NCCc3ccc(O)cc3)[C@H]2C(=O)NCCc2ccc(O)cc2)cc(OC)c1O [Compound 10, 1,2-dihydro-6,8-dimethoxy-7-hydroxy-1-(3,5-dimethoxy-4-hydroxyphenyl)-N^1,N^2-bis-[2-(4-hydroxypeenyl)ethyl]-2,3-naphthalene dicarboxamide] | > 20 | > 20 | > 20 | –
7 | 47.5 | 13.5 | COc1cc(/C=C/C(=O)OC[C@@H](Cc2cc(OC)c(O)c(OC)c2)[C@@H](COC(=O)/C=C/c2ccc(O)c(OC)c2)Cc2cc(OC)c(O)c(OC)c2)ccc1O [Compound 11, (+)-9,9′-O-di-(E)-feruloyl-5,5′-dimethoxy secoisolariciresinol] | > 20 | > 20 | > 20 | –
8 | – | – | COc1cc(CCNC(=O)[C@@H]2C(C(=O)NCCc3ccc(O)cc3)=Cc3cc(OC)c(O)c(OC)c3[C@H]2c2cc(OC)c(O)c(OC)c2)ccc1O [Compound 2, (−)-(7′R,8′S)-N^1-[2-(4-hydroxyphenyl)-ethyl]-N^2-[2-(4-hydroxy-3-methoxyphenyl)-ethyl]-4,4′-dihydroxy-3,5,3′,5′-tetramethoxy-2,7′-cyclolignan-7-en-9,9′-diamide] | > 20 | > 20 | > 20 | –
9 | 9.5 | – | C[C@@H]1C[C@H]2[C@@H]3CCC4=CC(=O)C=C[C@]4(C)[C@@]3(F)[C@@H](O)C[C@]2(C)[C@@]1(O)C(=O)CO [Dexamethasone, reference compound] | – | – | – | –
10 | – | – | COc1cc(C[C@H]2C(=O)OC[C@@H]2Cc2ccc(OC)c(OC)c2)ccc1O [Compound 17, arctigenin] | 0.28 | 3.25 | > 20 | –
11 | – | – | CC(=O)O[C@H]1C(=O)[C@@]2(C)[C@H]([C@H](OC(=O)c3ccccc3)[C@]3(O)C[C@H](OC(=O)[C@H](O)[C@@H](NC(=O)c4ccccc4)c4ccccc4)C(C)=C1C3(C)C)[C@]1(OC(C)=O)CO[C@@H]1C[C@@H]2O [Taxol, reference compound] | 0.02 | 0.005 | 1.28 | –
12 | – | – | COc1cc(C=CC(=O)OCC2C(Cc3ccc(O)c(OC)c3)COC2c2cc(OC)c(O)c(OC)c2)ccc1O (single isomer, unassigned; (+)) [Compound 14, (+)-9′-O-(E)-feruloyl-5′-methoxylariciresinol] | > 20 | > 20 | 10.5 | –
13 | – | – | COc1cc(C[C@H]2COC(=O)[C@@H]2Cc2ccc(O)c(OC)c2)ccc1O [Compound 18, matairesinol] | 1.53 | 14 | > 20 | –
14 | 58.6 | – | COc1cc(/C=C/C(=O)OC[C@@H](Cc2ccc(O)c(OC)c2)[C@@H](CO)Cc2ccc(O)c(OC)c2)ccc1O [Compound 6, (+)-(8S,8′S)-9-O-(E)-feruloyl-secoisolariciresinol] | > 20 | > 20 | > 20 | –
15 | – | – | COc1cc(CCNC(=O)C2=Cc3cc(OC)c(O)c(OC)c3[C@@H](c3cc(OC)c(O)c(OC)c3)[C@@H]2C(=O)NCCc2ccc(O)cc2)ccc1O [Compound 3, (−)-(7′R,8′S)-N^1-[2-(4-hydroxy-3-methoxyphenyl)-ethyl]-N^2-[2-(4-hydroxyphenyl)-ethyl]-4,4′-dihydroxy-3,5,3′,5′-tetramethoxy-2,7′-cyclolignan-7-en-9,9′-diamide] | > 20 | > 20 | > 20 | –
16 | – | – | COc1cc(C=CC(=O)OCC2C(Cc3cc(OC)c(O)c(OC)c3)COC2c2cc(OC)c(O)c(OC)c2)cc(OC)c1O (single isomer, unassigned; (+)) [Compound 8] | > 20 | > 20 | 11.2 | –
17 | – | – | COc1cc(CC2COC(c3cc(OC)c(O)c(OC)c3)C2CO)ccc1O (single isomer, unassigned; (+)) [Compound 16, (+)-5′-methoxylariciresinol] | > 20 | > 20 | > 20 | –
18 | – | – | COc1cc(C=CC(=O)OCC2C(C(=O)c3cc(OC)c(O)c(OC)c3)COC2c2cc(OC)c(O)c(OC)c2)ccc1O (single isomer, unassigned; (+)) [Compound 7] | > 20 | > 20 | 2.47 | 4-6 folds
19 | 50.1 | – | COc1cc(/C=C/C(=O)OC[C@@H](Cc2cc(OC)c(O)c(OC)c2)[C@@H](CO)Cc2cc(OC)c(O)c(OC)c2)ccc1O [Compound 5, (+)-(8S,8′S)-9-O-(E)-feruloyl-5,5′-dimethoxysecoisolariciresinol] | > 20 | > 20 | > 20 | –
20 | – | – | COc1cc([C@@H]2c3c(cc(OC)c(O)c3OC)C=C(C(=O)NCCc3ccc(O)cc3)[C@H]2CO)cc(OC)c1O [Compound 1, (−)-(7′R,8′S)-N-[2-(4-hydroxyphenyl)-ethyl]-4,4′,9′-trihydroxy-3,5,3′,5′-tetramethoxy-2,7′-cyclolignan-7-en-9-amide] | > 20 | > 20 | > 20 | –
